Experimental data published in paper PMC11650361 (Archiv Der Pharmazie, 2024).
Like-named read-outs stand apart in the source and are kept apart here.

Assays:
β‐amyloid (1–42) (Aβ42) = β‐amyloid (1–42) (Aβ42) (Homo sapiens, UniProt P05067); assay: Inhibition of Aβ42 self-aggregation (thioflavin T fluorescence); assay type: biochemical; conditions: for inhibition at 100 µM: read-out: Inhibition of Aβ42 self‐aggregation, %
Experimental: Inhibition of Aβ42 self‐aggregation by test compounds was studied using the ThT fluorescence method^[ [67], [68] ^] with minor modifications as described in detail in Makhaeva et al.^[ [16] ^] Lyophilized hexamfluoroisopropanol‐pretreated Aβ42 (GenicBio Limited, 1 mg) was dissolved in DMSO to obtain a stable 500 μM solution. […] Myricetin and propidium iodide in the same concentration were used as references. […] Each assay was run in triplicate.
^c The inhibitory effect of the test compounds toward Aβ42 self-aggregation was determined using the thioflavin T (ThT) fluorescence method ^[5-7] with minor modifications as described in detail in ^[8]. Lyophilized HFIP-pretreated Aβ42 from BACHEM (Bubendorf, Switzerland) was used. […] Myricetin and propidium iodide were used as reference compounds (positive controls). Analyses were performed with a FLUOStar Optima microplate reader (LabTech, Ortenberg, Germany). The inhibition (%) of Aβ42 self-aggregation by the test compounds was calculated by the following equation: […]
where IFi and IFo are the fluorescence intensities obtained for Aβ42 in the presence and in the absence of inhibitor, respectively, after subtracting the fluorescence of respective blanks.

equine serum BChE = biological target: T1, equine serum BChE (Equus caballus, UniProt P81908); assay: biochemical; conditions: for IC50: equine serum BChE, mean ± SEM, n = 3
T1 construct: purchased Sigma-Aldrich; Milamed, Perm, Russia (supplement); host or cells: horse serum
T1 sequence (P81908 whole entry): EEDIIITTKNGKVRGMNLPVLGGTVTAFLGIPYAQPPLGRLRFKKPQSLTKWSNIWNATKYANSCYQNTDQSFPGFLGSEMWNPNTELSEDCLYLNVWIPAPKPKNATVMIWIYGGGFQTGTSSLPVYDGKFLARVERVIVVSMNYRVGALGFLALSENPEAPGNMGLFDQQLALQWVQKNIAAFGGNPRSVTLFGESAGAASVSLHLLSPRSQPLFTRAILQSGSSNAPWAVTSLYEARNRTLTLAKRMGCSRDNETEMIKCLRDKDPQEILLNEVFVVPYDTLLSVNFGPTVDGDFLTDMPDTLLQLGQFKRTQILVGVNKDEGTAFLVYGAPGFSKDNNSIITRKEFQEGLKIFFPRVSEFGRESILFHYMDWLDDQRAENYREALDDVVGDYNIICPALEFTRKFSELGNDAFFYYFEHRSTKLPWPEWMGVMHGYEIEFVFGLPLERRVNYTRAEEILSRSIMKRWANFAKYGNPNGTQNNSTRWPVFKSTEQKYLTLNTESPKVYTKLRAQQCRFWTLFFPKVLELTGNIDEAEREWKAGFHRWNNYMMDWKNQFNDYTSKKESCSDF

human erythrocyte AChE = biological target: T2, human erythrocyte AChE (Homo sapiens, UniProt P22303); assay: biochemical; assay type: biochemical; conditions: for IC50: human erythrocyte AChE, mean ± SEM, n = 3
T2 construct: purchased Sigma-Aldrich; Milamed, Perm, Russia (supplement); host or cells: human erythrocytes
T2 sequence (P22303 32-617 isoform P22303-2 limits assumed): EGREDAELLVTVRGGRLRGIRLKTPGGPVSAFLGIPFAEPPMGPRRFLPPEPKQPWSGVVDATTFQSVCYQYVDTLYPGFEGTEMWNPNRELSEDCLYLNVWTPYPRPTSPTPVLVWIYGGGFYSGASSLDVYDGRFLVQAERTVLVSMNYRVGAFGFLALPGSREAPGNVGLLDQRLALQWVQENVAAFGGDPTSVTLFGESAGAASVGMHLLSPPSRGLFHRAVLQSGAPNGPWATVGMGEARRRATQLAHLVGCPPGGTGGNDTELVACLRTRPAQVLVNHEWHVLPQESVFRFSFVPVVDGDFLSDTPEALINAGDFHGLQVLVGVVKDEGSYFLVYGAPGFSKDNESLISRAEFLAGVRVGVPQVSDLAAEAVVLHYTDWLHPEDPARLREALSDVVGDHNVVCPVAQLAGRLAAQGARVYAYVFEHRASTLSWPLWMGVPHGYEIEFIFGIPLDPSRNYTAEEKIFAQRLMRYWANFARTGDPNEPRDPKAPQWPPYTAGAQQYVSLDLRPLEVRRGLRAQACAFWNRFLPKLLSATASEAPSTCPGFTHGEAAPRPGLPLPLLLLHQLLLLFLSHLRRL

[1] = biological target: T3, PAS of Electrophorus electricus AChE (EeAChE) (Electrophorus electricus, UniProt O42275); assay type: binding; conditions: 20 µM compound concentration
T3 construct: purchased Sigma-Aldrich type VI-S; host or cells: electric eel tissue
T3 sequence (O42275 24-633): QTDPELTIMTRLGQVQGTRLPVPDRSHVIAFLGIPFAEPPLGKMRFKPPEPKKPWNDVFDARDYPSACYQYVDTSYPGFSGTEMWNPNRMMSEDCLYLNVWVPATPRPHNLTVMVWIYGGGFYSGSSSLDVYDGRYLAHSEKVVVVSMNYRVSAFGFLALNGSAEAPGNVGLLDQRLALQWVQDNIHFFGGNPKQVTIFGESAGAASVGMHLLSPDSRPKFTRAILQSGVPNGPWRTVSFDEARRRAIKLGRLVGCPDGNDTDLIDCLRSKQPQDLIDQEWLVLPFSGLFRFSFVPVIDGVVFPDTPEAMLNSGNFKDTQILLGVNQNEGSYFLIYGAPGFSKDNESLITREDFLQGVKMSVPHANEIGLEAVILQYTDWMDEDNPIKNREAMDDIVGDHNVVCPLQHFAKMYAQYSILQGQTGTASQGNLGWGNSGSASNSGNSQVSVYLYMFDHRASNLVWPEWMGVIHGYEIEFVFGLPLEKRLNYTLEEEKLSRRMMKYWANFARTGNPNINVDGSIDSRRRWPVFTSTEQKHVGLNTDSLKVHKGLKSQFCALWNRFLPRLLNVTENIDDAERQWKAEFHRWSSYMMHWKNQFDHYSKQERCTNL
Experimental: The ability of the test compounds to competitively displace propidium was evaluated by the fluorescence method,^[ [65] ^] as described in detail in Makhaeva et al.^[ [66] ^] […] After 15 min of incubation of the test compounds at a concentration of 20 μM with a 7 μM solution of EeAChE in 1 mM Tris‐HCl buffer, pH 8.0, 25°C, propidium iodide (final concentration 8 μM) was added. Then, the solutions were incubated for 15 min and the fluorescence spectrum was recorded (530 nm (excitation) and 600 nm (emission)). […] Measurements were performed in triplicate on a FLUOStar Optima microplate reader (BMG LabTech).
The 7 μM EeAChE was incubated with the test compound at a concentration of 20 μM in 1 mM Tris-HCl buffer pH 8.0, 25 °C, for 15 min. After that, propidium iodide was added at final concentration of 8 μM. The samples were incubated for 15 min and the fluorescence spectrum (530 nm (excitation) and 600 nm (emission)) was taken. […] The measurements were carried out in triplicate on a FLUOStar Optima microplate reader. The degree of propidium displacement (% displacement) from the PAS of EeAChE was calculated by formula (1):
% Displacement = 100 – (IFAChE+ Propidium + inhibitor / IFAChE + Propidium) × 100 (1),
where IFAChE + Propidium is the fluorescence intensity of the propidium associated with AChE in the absence of the test compound (taken as 100%), and IFAChE + Propidium + inhibitor is the fluorescence intensity of the propidium associated with AChE in the presence of the test compound.

AChE = biological target: T4, AChE (Homo sapiens, UniProt P22303); assay: Kinetic study of AChE inhibition, steady-state inhibition constants; assay type: biochemical; conditions: for αK i (noncompetitive inhibition constant), AChE / Ki: means ± SEM; for Ki: read-out: K i (competitive inhibition constant), AChE
T4 construct: purchased Sigma-Aldrich; Milamed, Perm, Russia (supplement); host or cells: human erythrocytes
T4 sequence (P22303 32-617 isoform P22303-2 limits assumed): as the sequence (P22303 32-617 isoform P22303-2 limits assumed) above
Experimental: (§1) We assessed the mechanisms of AChE and BChE inhibition by performing a thorough analysis of enzyme kinetics. After a 5 min incubation at 25°C (for temperature equilibration) with three increasing concentrations of inhibitor and six decreasing substrate concentrations, the residual enzyme activity was measured as described above for enzymatic assays.

eqBChE = biological target: T5, eqBChE (Equus caballus, UniProt P81908); assay: Kinetic study of BChE inhibition, steady-state inhibition constants; assay type: biochemical; conditions: for αK i (noncompetitive inhibition constant), eqBChE / Ki: means ± SEM; for Ki: read-out: K i (competitive inhibition constant), eqBChE
T5 construct: purchased Sigma-Aldrich; Milamed, Perm, Russia (supplement); host or cells: horse serum
T5 sequence (P81908 whole entry): as the sequence (P81908 whole entry) above
Experimental: as §1

porcine liver CES = assay: In vitro CES inhibition (4-NPA substrate); assay type: biochemical; conditions: % inhibition at 20 μM; n.a. = not active
Experimental: The esterase profile of the synthesized conjugates was determined. This included an assessment of their inhibition of cholinergic targets AChE and BChE along with a structurally related enzyme CES (EC 3.1.1.1), which hydrolyzes numerous ester‐containing drugs and is considered as an off‐target for anti‐AD agents.^[ [9], [40] ^] Human erythrocyte AChE, equine serum BChE, and porcine liver CES were used.^[ [40], [41], [42] ^]
Initially, we used a single concentration of 20 µM for all compounds.
^a All experiments were carried out in accordance with the standard protocols approved by IPAС RAS. Human erythrocyte AChE, equine serum BChE were purchased from Milamed (Perm, Russia). Porcine liver CES, substrates, and reference compounds were from Sigma-Aldrich (St. Louis, MO, USA). The activity of enzymes was measured spectrophotometrically, as described in detail in ^[1] using ATCh iodide, BTCh iodide, and 4-NPA as substrates for AChE, BChE, and CES, respectively. Experimental conditions: K,Na-phosphate buffer (100 mM), 25 °С, pH 7.5 for AChE and BChE and pH 8.0 for CES assay. Measurements were carried out on a FLUOStar Optima microplate reader (BMG Labtech, Ortenberg, Germany). Test compounds were dissolved in DMSO; final concentration of solvent in the incubation mixture was 2% (v/v).

[2] = ABTS radical cation scavenging activity assay; conditions: for IC50: concentration reducing ABTS radical by 50%, 1 h; for ABTS^•+‐scavenging activity, TEAC: relative to Trolox, 1 h incubation, n.a. = inactive
Experimental: Data are given for 1 h of incubation of compounds with ABTS^•+. The AOA of the compounds was evaluated as Trolox equivalent antioxidant capacity (TEAC values) as the ratio of the slopes of the concentration–response curves, test compound/Trolox. All tests were performed at least in triplicate in three independent experiments. The IC50 values for the test compounds were also determined.

Sequence of β‐amyloid (1–42) (Aβ42) (P05067 672-713 limits assumed): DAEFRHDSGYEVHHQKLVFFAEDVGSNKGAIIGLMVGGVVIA

O=c1c(O)c(-c2cc(O)c(O)c(O)c2)oc2cc(O)cc(O)c12 [Myricetin, reference compound]
inhibition at 100 µM (β‐amyloid (1–42) (Aβ42); Aβ42 50 µM, compound 100 µM): 79.4 ± 6.3%

O=[N+]([O-])c1ccc(OP(=O)(O)Oc2ccc([N+](=O)[O-])cc2)cc1 [BNPP, Bis‐4‐nitrophenyl phosphate, reference compound]
BChE inhibition, % (equine serum BChE; 20 µM): n.а.
AChE inhibition, % (human erythrocyte AChE; 20 µM): n.а.
Propidium displacement, % [1]: n.а.
Inhibition of Aβ42 self‐aggregation, % (β‐amyloid (1–42) (Aβ42); Aβ42 50 µM, compound 100 µM): n.а.

Oc1ccccc1CNCCCCCCNc1c2c(nc3c1CCC3)CCCC2 [10b, 2‐[({6‐[(2,3,5,6,7,8‐Hexahydro‐1H‐cyclopenta[b]quinolin‐9‐yl)amino]hexyl}amino)methyl]phenol]
IC50 (equine serum BChE): 29.4 ± 0.6 nM
IC50 (human erythrocyte AChE): 1190 ± 50 nM
Type of AChE inhibition (AChE; Lineweaver–Burk analysis): mixed type of inhibition
αK i (noncompetitive inhibition constant), AChE (AChE): 1.50 ± 0.03 µM
Ki (AChE): 656 ± 11 nM
inhibition at 100 µM (β‐amyloid (1–42) (Aβ42); Aβ42 50 µM, compound 100 µM): 79.2 ± 5.5%
Type of BChE inhibition (eqBChE; Lineweaver–Burk analysis): mixed type of inhibition
αK i (noncompetitive inhibition constant), eqBChE (eqBChE): 45.4 ± 4.1 nM
Ki (eqBChE): 21 ± 0.6 nM

CCCCCCNCc1ccccc1O [compound 13, 2‐[(hexylamino)methyl]phenol]
inhibition at 20 µM (equine serum BChE): 26.9 ± 0.5%
inhibition at 20 µM (human erythrocyte AChE): 14 ± 0.6%
CES inhibition, % (porcine liver CES): 14.8 ± 0.5%
IC50 [2]: 10700 ± 400 nM
ABTS^•+‐scavenging activity, TEAC [2]: 1.52 ± 0.07

O=C(O)c1ccccc1O [Salicylic acid, reference compound]
CES inhibition, % (porcine liver CES): 8.9 ± 0.6%
ABTS^•+‐scavenging activity, TEAC [2]: did not show activity

CCCCCCNc1c2c(nc3c1CCC3)CCCC2 [compound 11, N‐hexyl‐2,3,5,6,7,8‐hexahydro‐1H‐cyclopenta[b]quinolin‐9‐amine]
Selectivity index IC50AChE/IC50BChE (equine serum BChE): 16.4
IC50 (equine serum BChE): 262 ± 8 nM
IC50 (human erythrocyte AChE): 4300 ± 320 nM
CES inhibition, % (porcine liver CES): 5.6 ± 0.6%

COc1cc2c(cc1OC)C(=O)C(CC1CCN(Cc3ccccc3)CC1)C2 (stereo not drawn) [Donepezil, reference compound]
CES inhibition, % (porcine liver CES): n.а.
inhibition at 100 µM (β‐amyloid (1–42) (Aβ42)): 90.7 ± 7.1%

CC[N+](C)(CC)CCC[n+]1c(-c2ccccc2)c2cc(N)ccc2c2ccc(N)cc21.[I-].[I-] [Propidium iodide, reference compound]
Inhibition of Aβ42 self‐aggregation, % (β‐amyloid (1–42) (Aβ42); Aβ42 50 µM, compound 100 µM): 90.7 ± 7.1%

O=C(NCCCCCCNc1c2c(nc3c1CCC3)CCCC2)c1ccccc1O [7b, N‐{6‐[(2,3,5,6,7,8‐Hexahydro‐1H‐cyclopenta[b]quinolin‐9‐yl)amino]hexyl}−2‐hydroxybenzamide]
Selectivity index IC50AChE/IC50BChE (equine serum BChE): 193
IC50 (equine serum BChE): 22 ± 1 nM
IC50 (human erythrocyte AChE): 4240 ± 80 nM
CES inhibition, % (porcine liver CES): 12.3 ± 1.2%
IC50 [2]: 17600 ± 700 nM
ABTS^•+‐scavenging activity, TEAC [2]: 0.98 ± 0.04
Propidium displacement, % [1]: 11.6 ± 0.9%
αK i (noncompetitive inhibition constant), AChE (AChE): 6.25 ± 0.44 µM
Ki (AChE): 2600 ± 190 nM
inhibition at 100 µM (β‐amyloid (1–42) (Aβ42); Aβ42 50 µM, compound 100 µM): 53.4 ± 4.2%
αK i (noncompetitive inhibition constant), eqBChE (eqBChE): 19.2 ± 0.9 nM
Ki (eqBChE): 14.2 ± 1.1 nM

Oc1ccccc1C=NCCCCCCNc1c2c(nc3c1CCC3)CCCC2 [9b, 2‐[({6‐[(2,3,5,6,7,8‐Hexahydro‐1H‐cyclopenta[b]quinolin‐9‐yl)amino]hexyl}imino)methyl]phenol]
αK i (noncompetitive inhibition constant), AChE (AChE): 4.98 ± 0.33 µM
Ki (AChE): 1760 ± 120 nM
αK i (noncompetitive inhibition constant), eqBChE (eqBChE): 89.0 ± 7.1 nM
Ki (eqBChE): 50.1 ± 4.8 nM

Cc1c(C)c2c(c(C)c1O)CCC(C)(C(=O)O)O2 (stereo not drawn) [Trolox, 6-hydroxy-2,5,7,8-tetramethychroman-2-carboxylic acid, reference compound]
IC50 [2]: 19700 ± 1400 nM
ABTS^•+‐scavenging activity, TEAC [2]: 1.0

CCCCCCN=Cc1ccccc1O [compound 12, 2‐[(hexylimino)methyl]phenol]
inhibition at 20 µM (equine serum BChE): 10.6 ± 0.1%
AChE inhibition, % (human erythrocyte AChE; % inhibition at 20 μM, n.a. = not active): n.а.
CES inhibition, % (porcine liver CES): 1.9 ± 0.1%
IC50 [2]: 93300 ± 4100 nM
ABTS^•+‐scavenging activity, TEAC [2]: 0.15 ± 0.008
